Some test systems named below: CCRF-CEM leukemia; DU-145 prostate; HOP-92 NSCLC; HT29 colon; NCI-H23 lung; NCI-H460 lung; NCI/ADR-RES ovarian; SF-268 CNS; SN12C renal; SR leukemia.
Holding throughout (test): growth of human tumour cells (NCI), 48 h

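Protocol summary: plate cells (96-well), add compound at 5 concentrations, incubate 48 h, interpolate endpoints linearly. GI50 is the concentration that inhibits growth by half. At the TGI there is no net growth.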

On to `CNCCOc1nc2c3cnccc3cc(-c3cc(OC)c(OC)c(OC)c3)c2c2ccncc12`, for which the GI50 in the assay on CCRF-CEM leukemia was less than 13 nM; in the assay on DU-145 prostate, 22 nM; with HOP-92 NSCLC, 16.8 nM; with HT29 colon, 37.2 nM; with NCI-H23 lung, 27.8 nM; in the assay with NCI-H460 lung, less than 10 nM. Further, the GI50 in the assay with NCI/ADR-RES ovarian was 344 nM; in the assay with SF-268 CNS, 33 nM; in the assay on SN12C renal, 19.9 nM; in the assay on SR leukemia, less than 10 nM. Further, the TGI in the assay on CCRF-CEM leukemia is 1100 nM; with DU-145 prostate it was 167 nM; in the assay on HOP-92 NSCLC, 100 nM; with HT29 colon, 1070 nM; in the assay with NCI-H23 lung, 161 nM; with NCI-H460 lung, 103 nM. Also, the TGI in the assay on NCI/ADR-RES ovarian is 2090 nM; in the assay with SF-268 CNS, 623 nM; in the assay with SN12C renal it was 87.2 nM.

Take `COc1ccc(C2C3=C(COC3=O)N(CCO)c3cc4c(cc32)OCCO4)cc1OC` (centres undefined): the GI50 was 2020 nM in the assay on CCRF-CEM leukemia; 1930 nM in the assay on DU-145 prostate; 837 nM in the assay on HOP-92 NSCLC; 1640 nM with HT29 colon; 2250 nM in the assay with NCI-H23 lung; 1840 nM in the assay with NCI-H460 lung. Moreover, the GI50 in the assay with NCI/ADR-RES ovarian is 11400 nM; in the assay on SF-268 CNS it was 4300 nM; in the assay with SN12C renal, more than 15700 nM; with SR leukemia, 741 nM. Further, the TGI with CCRF-CEM leukemia was more than 50000 nM; with DU-145 prostate, 14900 nM; in the assay on HOP-92 NSCLC, more than 50000 nM; with HT29 colon, more than 14900 nM; in the assay on NCI-H23 lung, more than 50000 nM; in the assay with NCI-H460 lung it was more than 18900 nM. Besides, the TGI in the assay on NCI/ADR-RES ovarian was more than 50000 nM; with SF-268 CNS it was more than 50000 nM; in the assay on SN12C renal, more than 50000 nM; in the assay on SR leukemia, 35800 nM.

For `N#Cc1c(Oc2ccc(F)c(NC(=O)Cc3cccc(C(F)(F)F)c3)c2)ccc2nc(NC(=O)C3CC3)sc12`, the GI50 with CCRF-CEM leukemia was 622 nM; in the assay on DU-145 prostate it was 2340 nM; with HOP-92 NSCLC, 278 nM; in the assay on HT29 colon it was 53.3 nM; in the assay on NCI-H23 lung, 714 nM; in the assay with NCI-H460 lung, 378 nM. The GI50 in the assay on NCI/ADR-RES ovarian was 1280 nM; in the assay on SF-268 CNS, 1350 nM; with SN12C renal, 1260 nM; in the assay on SR leukemia it was 672 nM. For the same molecule, the TGI in the assay on CCRF-CEM leukemia is more than 100000 nM; in the assay on DU-145 prostate, more than 100000 nM; in the assay on HOP-92 NSCLC, 2190 nM; with HT29 colon it was more than 100000 nM; in the assay with NCI-H23 lung, more than 100000 nM; in the assay on NCI-H460 lung, more than 100000 nM. For the same molecule, the TGI with NCI/ADR-RES ovarian, in the assay with SF-268 CNS, in the assay with SN12C renal and with SR leukemia was more than 100000 nM throughout.

In the case of `C=C=[CH][Sn]([c]1ccccc1)([c]1ccccc1)[c]1ccccc1`, the GI50 is 790 nM with CCRF-CEM leukemia; 1140 nM with DU-145 prostate; 593 nM with HOP-92 NSCLC; 1210 nM in the assay with HT29 colon; 1580 nM with NCI-H23 lung; 1440 nM in the assay with NCI-H460 lung. Besides, the GI50 with NCI/ADR-RES ovarian was 2190 nM; in the assay with SF-268 CNS, 1690 nM; in the assay on SN12C renal, 1680 nM; with SR leukemia, 1320 nM. The TGI in the assay with CCRF-CEM leukemia came to 3400 nM; in the assay on DU-145 prostate, 2420 nM; in the assay with HOP-92 NSCLC, 2030 nM; in the assay on HT29 colon it was 2450 nM; with NCI-H23 lung, 3470 nM; in the assay on NCI-H460 lung, 3020 nM. The TGI with NCI/ADR-RES ovarian worked out at 5940 nM; in the assay on SF-268 CNS it was 3660 nM; in the assay on SN12C renal, 3190 nM; in the assay with SR leukemia, 8390 nM.

For the molecule `CON`, the GI50 in the assay with CCRF-CEM leukemia, with DU-145 prostate, in the assay on HOP-92 NSCLC, in the assay with HT29 colon, with NCI-H23 lung and in the assay on NCI-H460 lung was more than 100000 nM in each case. Besides, the GI50 in the assay on NCI/ADR-RES ovarian, in the assay on SF-268 CNS, in the assay on SN12C renal and in the assay on SR leukemia was more than 100000 nM in each case. The TGI in the assay on CCRF-CEM leukemia, with DU-145 prostate, in the assay with HOP-92 NSCLC, with HT29 colon, in the assay with NCI-H23 lung and in the assay with NCI-H460 lung was more than 100000 nM each time. The TGI with NCI/ADR-RES ovarian, in the assay on SF-268 CNS, with SN12C renal and in the assay on SR leukemia was more than 100000 nM throughout.

In the case of `O=[N+]([O-])c1ccc(-c2ccccc2)c([As](=O)(O)O)c1`, the GI50 is 4420 nM in the assay on CCRF-CEM leukemia; 11300 nM in the assay on DU-145 prostate; 13500 nM in the assay with HOP-92 NSCLC; 13500 nM in the assay on HT29 colon; 18900 nM with NCI-H23 lung; 28000 nM in the assay on NCI-H460 lung. Further, the GI50 in the assay on NCI/ADR-RES ovarian is 22600 nM; in the assay with SF-268 CNS it was 9850 nM; with SN12C renal, 12700 nM; with SR leukemia, 10300 nM. Also, the TGI in the assay on CCRF-CEM leukemia is 39900 nM; in the assay on DU-145 prostate it was 29000 nM; in the assay with HOP-92 NSCLC, 95400 nM; in the assay on HT29 colon, 32200 nM; in the assay with NCI-H23 lung, 88200 nM; in the assay with NCI-H460 lung, more than 100000 nM. The TGI with NCI/ADR-RES ovarian is more than 100000 nM; in the assay with SF-268 CNS it was 39200 nM; in the assay with SN12C renal, more than 100000 nM; in the assay on SR leukemia, 57300 nM.

Turning to `CN(C)CCOc1nc2ccccc2c2c1-c1ccc(Cl)cc1C2=O`, the GI50 was 363 nM in the assay with CCRF-CEM leukemia; 444 nM in the assay with DU-145 prostate; 748 nM in the assay on HOP-92 NSCLC; 453 nM in the assay with HT29 colon; 1140 nM in the assay with NCI-H23 lung; 365 nM with NCI-H460 lung. In addition, the GI50 was 696 nM with NCI/ADR-RES ovarian, 577 nM in the assay on SF-268 CNS, 389 nM in the assay with SN12C renal and 305 nM with SR leukemia. For the same molecule, the TGI in the assay on CCRF-CEM leukemia was 2460 nM; in the assay with DU-145 prostate, 1350 nM; in the assay on HOP-92 NSCLC, 12300 nM; in the assay on HT29 colon, 1630 nM; in the assay with NCI-H23 lung it was 4040 nM; with NCI-H460 lung, 1300 nM. In addition, the TGI in the assay on NCI/ADR-RES ovarian was determined as 4400 nM; in the assay on SF-268 CNS, 2320 nM; in the assay with SN12C renal, 2360 nM; in the assay on SR leukemia, 1030 nM.

The record behind these values is PubChem BioAssay (NCI).
